Data on one compound can be found in patent US8119808B2, “Tetrahydroquinoline derivatives as cannabinoid receptor modulators” (Bristol-Myers Squibb Company, priority 2003, dated 2012).

Molecules are shown by their SMILES.

Broadly, the melting point is the temperature of the solid-liquid transition. As for `N#Cc1ccc2c(c1)C[C@H](NS(=O)(=O)c1ccccc1)CN2C(=O)c1ccccc1`, the melting point lay in the range of 174 to 175 °C.
